Columns and labels:
Calf DNA polymerase α = biological target: T1, Calf DNA polymerase α (Bos taurus, UniProt A0AAA9TD94); experiment: DNA polymerase activity assay, calf pol α; type: biochemical; details: for Inhibitory effect on calf pol α activity: 50 μM of each compound, Figure 2
T1 construct: made in house
T1 sequence (A0AAA9TD94 1-1441): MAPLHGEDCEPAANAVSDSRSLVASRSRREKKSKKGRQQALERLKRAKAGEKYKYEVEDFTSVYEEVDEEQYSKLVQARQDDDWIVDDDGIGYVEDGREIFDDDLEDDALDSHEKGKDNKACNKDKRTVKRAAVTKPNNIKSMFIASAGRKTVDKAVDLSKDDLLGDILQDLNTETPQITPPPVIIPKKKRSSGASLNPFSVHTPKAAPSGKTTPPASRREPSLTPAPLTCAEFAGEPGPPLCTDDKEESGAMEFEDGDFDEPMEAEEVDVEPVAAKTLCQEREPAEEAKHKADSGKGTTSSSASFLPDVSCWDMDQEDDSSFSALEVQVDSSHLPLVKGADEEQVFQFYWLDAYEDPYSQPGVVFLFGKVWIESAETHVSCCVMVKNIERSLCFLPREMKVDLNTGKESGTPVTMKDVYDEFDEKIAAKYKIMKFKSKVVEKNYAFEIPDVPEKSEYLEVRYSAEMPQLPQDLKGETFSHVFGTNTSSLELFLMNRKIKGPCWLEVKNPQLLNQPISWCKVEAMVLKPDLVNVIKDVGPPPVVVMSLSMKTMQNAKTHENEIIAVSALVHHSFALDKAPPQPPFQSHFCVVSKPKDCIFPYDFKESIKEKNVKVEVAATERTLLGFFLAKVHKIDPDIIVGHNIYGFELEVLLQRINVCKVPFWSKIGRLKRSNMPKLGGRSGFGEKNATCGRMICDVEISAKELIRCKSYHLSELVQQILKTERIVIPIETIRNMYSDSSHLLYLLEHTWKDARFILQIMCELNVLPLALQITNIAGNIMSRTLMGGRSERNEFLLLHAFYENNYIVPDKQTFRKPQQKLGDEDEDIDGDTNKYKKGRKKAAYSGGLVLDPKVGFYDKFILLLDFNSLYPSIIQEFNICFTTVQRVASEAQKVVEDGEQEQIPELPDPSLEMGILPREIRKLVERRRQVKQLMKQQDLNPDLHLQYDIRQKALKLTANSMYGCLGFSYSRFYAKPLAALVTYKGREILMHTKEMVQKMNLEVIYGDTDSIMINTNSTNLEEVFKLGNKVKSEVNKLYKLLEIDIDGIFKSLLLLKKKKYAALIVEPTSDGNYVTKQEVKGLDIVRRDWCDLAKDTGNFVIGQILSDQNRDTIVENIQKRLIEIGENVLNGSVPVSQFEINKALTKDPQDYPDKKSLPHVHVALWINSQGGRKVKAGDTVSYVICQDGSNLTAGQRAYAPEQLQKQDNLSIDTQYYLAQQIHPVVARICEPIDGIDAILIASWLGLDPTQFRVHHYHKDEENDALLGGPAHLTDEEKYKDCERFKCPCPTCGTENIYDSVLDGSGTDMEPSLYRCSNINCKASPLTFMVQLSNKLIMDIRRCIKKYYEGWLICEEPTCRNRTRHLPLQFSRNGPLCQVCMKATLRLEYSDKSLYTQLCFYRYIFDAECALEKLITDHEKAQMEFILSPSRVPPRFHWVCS
Procedure: (§1) Pols from mammals, a fish (cherry salmon), an insect (fruit fly) and a plant (cauliflower) were purified, and prokaryotic pols and other DNA metabolic enzymes, such as T7 RNA polymerase, T4 polynucleotide kinase and bovine deoxyribonuclease I, were purchased as described in our previous report. The activities of all pols and other DNA metabolic enzymes were measured as described in previous reports.
(§2) The components of the pol assay were poly(dA)/oligo(dT)18 and dTTP as the DNA template-primer and 2′-deoxyribonucleoside 5′-triphosphate (dNTP) substrate, respectively. VK2, VK3, and their synthesized derivatives (i.e., MK-3, MK-2 and MK-1) were dissolved in dimethyl sulfoxide (DMSO) at various concentrations and sonicated for 30 s. The sonicated samples (4 μL) were mixed with 16 μL of each pol enzyme (final amount, 0.05 units) in 50 mM Tris-HCl (pH 7.5) containing 1 mM dithiothreitol, 50% glycerol and 0.1 mM EDTA, and kept at 0 °C for 10 min. These inhibitor–enzyme mixtures (8 μL) were added to 16 μL of each standard enzyme reaction mixture (50 mM Tris-HCl [pH 7.5], 1 mM dithiothreitol, 1 mM MgCl2, 15% glycerol, 10 μM poly(dA)/oligo(dT)18 and 10 μM [^3H]-dTTP), and incubation was carried out at 37 °C for 60 min, except for Taq pol, which was incubated at 74 °C for 60 min. Activity without the inhibitor was considered to be 100%, and the activity remaining at each concentration of inhibitor was determined relative to this value. One unit of pol activity was defined as the amount of enzyme that catalyzed the incorporation of 1 nmol dNTP (dTTP) into the synthetic DNA template-primer (poly(dA)/oligo(dT)18, A/T = 2/1) in 60 min at 37 °C under normal reaction conditions for each enzyme (scintillation counts: approximately 1 pmol of incorporated radioactive nucleotides = 100 cpm).

Human DNA polymerase κ = biological target: T2, Human DNA polymerase κ (Homo sapiens, UniProt Q9UBT6); experiment: DNA polymerase activity assay, human pol κ; type: biochemical; details: for Inhibitory effect on human pol κ activity: 50 μM of each compound, Figure 2
T2 construct: made in house
T2 sequence (Q9UBT6 1-560 limits assumed): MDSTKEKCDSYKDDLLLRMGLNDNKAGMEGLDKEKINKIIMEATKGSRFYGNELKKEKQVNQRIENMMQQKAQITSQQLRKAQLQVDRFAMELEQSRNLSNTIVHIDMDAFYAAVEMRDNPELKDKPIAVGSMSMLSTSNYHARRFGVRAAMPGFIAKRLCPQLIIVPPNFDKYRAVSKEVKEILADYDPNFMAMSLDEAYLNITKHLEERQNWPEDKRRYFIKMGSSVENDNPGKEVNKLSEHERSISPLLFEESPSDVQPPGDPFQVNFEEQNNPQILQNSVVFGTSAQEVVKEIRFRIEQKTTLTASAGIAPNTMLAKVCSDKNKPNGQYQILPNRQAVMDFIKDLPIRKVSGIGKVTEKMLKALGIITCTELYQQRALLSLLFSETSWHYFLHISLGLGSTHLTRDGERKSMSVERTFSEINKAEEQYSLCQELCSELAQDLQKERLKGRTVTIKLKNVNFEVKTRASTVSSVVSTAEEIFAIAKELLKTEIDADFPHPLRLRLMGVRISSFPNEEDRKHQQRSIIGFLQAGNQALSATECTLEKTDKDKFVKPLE
Procedure: as §1, §2

Row | Inhibitory effect on human pol κ activity (Human DNA polymerase κ) | SMILES | Inhibitory effect on calf pol α activity (Calf DNA polymerase α) | IC50 (Calf DNA polymerase α; B-family pol, read-out: IC50 Value of MK-2, Calf DNA polymerase α) [µM] | IC50 (Human DNA polymerase κ; Y-family pol, read-out: IC50 Value of MK-2, Human DNA polymerase κ) [µM]
1 | inhibited the activity | CC(C)=CCC1=C(C)C(=O)c2ccccc2C1=O [MK-1] | inhibited the activity | – | –
2 | inhibited the activity | CC(C)=CCC/C(C)=C/CC/C(C)=C/CC1=C(C)C(=O)c2ccccc2C1=O [MK-3] | inhibited the activity | – | –
3 | had no effect on pol activity | CC(C)=CCC/C(C)=C/CC/C(C)=C/CC/C(C)=C/CC1=C(C)C(=O)c2ccccc2C1=O [MK-4, menaquinone 4, reference compound] | had no effect on pol activity | – | –

Row | SMILES | Inhibitory effect on human pol κ activity (Human DNA polymerase κ) | Inhibitory effect on calf pol α activity (Calf DNA polymerase α) | IC50 (Calf DNA polymerase α; B-family pol, read-out: IC50 Value of MK-2, Calf DNA polymerase α) [µM] | IC50 (Human DNA polymerase κ; Y-family pol, read-out: IC50 Value of MK-2, Human DNA polymerase κ) [µM]
4 | CC(C)=CCC/C(C)=C/CC1=C(C)C(=O)c2ccccc2C1=O [MK-2] | inhibited the activity | inhibited the activity | 27.6 ± 1.6 | 35.3 ± 2.1
